Consider 6 compounds from US5973114A, “Isolation and characterization of the growth hormone releasing hormone receptor” (priority 1992, dated 1999).

For assay [1], the target named is T1, secretin and VIP receptors (Homo sapiens, UniProt P47872).
T1 construct: host or cells: human pancreas
The following applies: 10 μM; human pancreas; cited from earlier work.

The subject of the next assay is GHRH-R (55 kDa band). Put plainly: photoaffinity cross-linking of the 55 kDa GHRH-R band, SDS-PAGE autoradiography. Type of assay: binding, ovine. Particulars: 125I-GHRHa-ANB-NOS probe. As to the method:
Photoprobe binding in ovine pituitary membrane pellets was determined by γ-counting and UV induced cross-linking was examined by autoradiagraphy of sodium dodecylsulfate polyacrylamide electrophoresis (SDS-PAGE) gels. ^125 I-GHRHa -ANB-NOS probe bound with an affinity of about one nanomole, nM (compared to about 160 picomole, pM, for GHRHa).
Photoprobe binding to membranes was evaluated with crude membrane binding assay and then analyzed further by SDS-PAGE electrophoresis to identify the binding sites. Photoprobes were incubated in the dark, photolysed for 10 minutes with a long wave (366 nm) UV lamp, and then the samples were pelleted. The pellets were counted and then extracted by boiling directly in SDS sample buffer (total SDS extracts). Alternatively, the labeled pellets were extracted in a mild detergent solution (5 mM CHAPS) centrifuged, and the chloroform/methanol concentrated supernatants denatured with SDS buffer (CHAPS extracts). These samples were then electrophoresed in SDS gels and autoradiographed.

The next assay deals with GHRH receptor (GHRH-R). Briefly: 125I-GHRHa binding assay in crude ovine pituitary membrane pellets. Particulars: for displacement of photoprobe binding to membrane pellets: both photoprobes; for competition for the 125I-GHRHa binding site: 100 nM competitor. The procedure:
Specific binding is defined as the difference in the binding seen with 20 pM iodinated analog alone and binding of the analog in the presence of 10 nM non-iodinated GHRHa.
All steps were performed at 4° C. Frozen ovine or bovine anterior pituitaries (ovine: approximately 1 gm/pituitary obtained from Dr. Iain Clarke, Melbourne, Australia; bovine: approximately 2.5 gm/pituitary special handling from Pel-Freez, of Rogers, Ak.) were washed of blood, cleaned of connective tissue and homogenized (using a Dounce homogenizer) in 50 mM HEPES buffer, 100 mM NaCl, 10 mM EDTA, 0.1 μM EGTA, pH 7.4 with 0.5 mM PMSF (phenyl methyl sulfonyl fluoride), 10 μg/ml leupeptin, 10 μg/ml pepstatin A, and 200 U/ml (units/ml) aprotinin. This buffer is used to remove endogenous GTP which might be bound to G proteins and to restore high affinity binding. The homogenate was spun at top speed in a microfuge and the supernatant discarded. The upper (membrane) layer of the pellet was then gently resuspended in binding buffer containing 50 mM Tris buffer, 5 mM EGTA, 5 mM MgCl2, 50 μg/ml alamethicin, 30 μg/ml bacitracin and other protease inhibitors as above.
1/50 pituitary equivalent per tube was incubated in binding buffer with approximately 100,000 counts of iodinated probe in a volume of 500 μl at room temperature for 1 hour. The total counts delivered and the percent of counts bound for each tube was determined with 3 to 6 replicates per experimental condition. Saturation binding profiles were analyzed with the computer program Ligand which performs a statistically weighted least squares fit to the exact ligand binding equation in nontransformed coordinates.

“Also recorded” adds a separate entry of the source.

T1 sequence (P47872 23-440): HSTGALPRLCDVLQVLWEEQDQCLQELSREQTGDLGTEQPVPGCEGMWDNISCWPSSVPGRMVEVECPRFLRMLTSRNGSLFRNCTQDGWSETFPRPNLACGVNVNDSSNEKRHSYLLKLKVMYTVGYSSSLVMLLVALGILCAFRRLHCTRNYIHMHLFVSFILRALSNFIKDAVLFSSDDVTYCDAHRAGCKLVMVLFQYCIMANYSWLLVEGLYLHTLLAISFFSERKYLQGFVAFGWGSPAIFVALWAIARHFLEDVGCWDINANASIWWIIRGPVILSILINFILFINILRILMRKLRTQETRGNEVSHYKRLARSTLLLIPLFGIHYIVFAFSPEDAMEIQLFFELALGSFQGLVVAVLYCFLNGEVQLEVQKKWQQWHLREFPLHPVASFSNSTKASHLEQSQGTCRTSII

For GHRH(1-29)-NH2, the “inhibition of 125I-secretin binding” value in assay [1] is 20%. Consider `Nc1nc2c(ncn2[C@@H]2O[C@H](COP(=O)(O)OP(=O)(O)OP(O)(O)=S)[C@@H](O)[C@H]2O)c(=O)[nH]1` [GTPγS], for which, in the assay with GHRH-R (55 kDa band) (50 μM GTPγS), the “reduction of the 55 kDa cross-linked band” value is given as “over 50%”. Moreover, the “displacement of photoprobe binding to membrane pellets” value with GHRH receptor (GHRH-R) (50 μM GTPγS) is recorded as “partially displaced”. With `O[C@H](CS)[C@H](O)CS` (racemic) [DTT, dithiothreitol], the “effect on specific binding in the GHRH assay” value with GHRH receptor (GHRH-R) (preincubation with 1 mM DTT) is listed as “completely eliminated”. With “pituitary adenylate cyclase activating peptide [PACAP]”, the “competition for the 125I-GHRHa binding site” value in the assay with GHRH receptor (GHRH-R) was “did not compete; also recorded: no competition”. Turning to vasoactive intestinal peptide [VIP], the “inhibition of 125I-secretin binding” value in assay [1] was 20%. Besides, the “effect on the 55 kDa cross-linked band” value in the assay with GHRH-R (55 kDa band) (100 nM VIP) is listed as “unaffected”. Further, the “competition for the 125I-GHRHa binding site” value with GHRH receptor (GHRH-R) is “did not compete; also recorded: no competition”. Turning to “[His^1, Nle^27 ]-GHRH-(1-32)-NH2 [GHRHa]”, the “effect on the 55 kDa cross-linked band” value in the assay on GHRH-R (55 kDa band) (10 nM GHRHa) is “completely eliminated”. In addition, the “displacement of photoprobe binding to membrane pellets” value in the assay with GHRH receptor (GHRH-R) (10 nM GHRHa) was “totally displaced”. For the same compound, the Kd on GHRH receptor (GHRH-R) (crude ovine pituitary membrane pellets, program Ligand, read-out: Kd, saturation binding to a single high affinity site) was ~0.16 nM.
